Experimental data published in patent publication US7528226B2, “TGFβ1-inhibitor peptides” (Rojecto de Biomedicina Cima S.L., priority 1998, dated 2009).
No end group written: not given here.

Test system: experimental cirrhosis with CCl4
Assay: Model of experimental cirrhosis induced with CCl4 in Wistar rats (collagen / fibrosis)
Assay type: in vivo, rat
Procedure: Male white rats (albino Wistar strain) from simultaneous litters (5 weeks±1.5 weeks) were used, in order to obtain a group that was homogeneous in age and initial weight. Throughout the experiments, the animals were kept in conditions of constant temperature (22° C.) with a 12-hour cycle of light and darkness. They had free access to water and food.
Hepatic cirrhosis (HC) was induced by inhalation of carbon tetrachloride for 11 weeks, twice per week (López Novoa J M et al. (1976) Patologia IX:223-240; Camps J. et al. (1987) Gastroenterology 93:498-505). Exposure to CCl4 was effected by bubbling compressed air, at a flow rate of 3 liters/min, through a gas wash-bottle. […] CCl4 was not administered during the fifth week, starting again at the sixth week with an exposure of 5 minutes. This exposure time was maintained until week 11. 400 mg/l of phenobarbital (Luminal®, Bayer, Leverkusen, Germany) was added to the drinking water, from one week before starting exposure to CCl4 and until the end of the experimental period. Before starting the treatment, one week was left, in which they were not administered CCl4. During treatment they were administered a weekly dose of CCl4, as recorded (FIG. 2).
The animals were divided into 4 groups before beginning the process of induction of hepatic cirrhosis. • Healthy controls (Co): Animals that were not subjected to the fibrosis process. • Treated healthy controls (Co+P144): Animals that were not subjected to the fibrosis process and that were administered the peptide P144 during the last 3 weeks (coinciding in time with the treatment of the group of rats Tto2). • Cirrhotic controls 1 (Ci1): Animals subjected to the process of induction of cirrhosis by inhalation of CCl4 twice per week. These animals were separated into 2 groups on reaching the fifth week: • Cirrhotic controls 1 (Ci1): Animals that continued to be subjected to the process of induction of fibrosis up to week 11, without being administered the peptide P144. They were administered saline serum on alternate days, throughout the induction process (weeks 5 to 11). • Treated cirrhotics 1 (Tto1): Animals that were administered the peptide P144 derived from the sequence of the type III receptor, on alternate days, during the process of induction of fibrosis, from week 5 to week 11. • Cirrhotic controls 2 (Ci2): Animals that continued to be subjected to the process of induction of fibrosis without receiving the peptide P144 or saline serum. This group was subdivided into another two on reaching week 11. • Cirrhotic controls 2 (Ci2): Cirrhotic animals that were not subjected to any type of treatment, kept as controls. […]

## TSLDASIIWAMMQN [P144, ThrSerLeuAspAlaSerIleIleTrpAlaMetMetGlnAsn]
Protocol 1: 70 μg/animal on alternate days during cirrhosis induction, Fast Green/Direct Red, spectrophotometer
  ratio of collagen to total protein, treated (Tto1) vs cirrhotic controls (Ci1): significant differences are observed (P<0.05)
Protocol 1: 70 μg/animal on alternate days during cirrhosis induction, image analysis, Sirius Red
  area of fibrosis, treated (Tto1) vs cirrhotic controls (Ci1): also significant (P<0.001)
Protocol 2: 70 μg/animal on alternate days for 3 weeks once cirrhosis was established
  ratio of collagen to total protein, treated (Tto2) vs cirrhotic controls (Ci2): not significant
Protocol 2: 70 μg/animal on alternate days for 3 weeks once cirrhosis was established, image analysis
  area of fibrosis, treated (Tto2) vs cirrhotic controls (Ci2): not significant
